Reference: PubChem BioAssay (NCI)
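Each compound was tested at five concentrations against cells in 96-well plates for 48 hours. The concentration for full growth arrest is given as TGI.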

Key:
Test in all cases: growth of human tumour cells (NCI), 48 h
M19-MEL melanoma = system: M19-MEL melanoma
DMS 273 small cell lung = system: DMS 273 small cell lung
HCC-2998 colon = system: HCC-2998 colon
OVCAR-5 ovarian = system: OVCAR-5 ovarian
NCI-H226 lung = system: NCI-H226 lung
SNB-19 CNS = system: SNB-19 CNS
HCT-116 colon = system: HCT-116 colon
OVCAR-3 ovarian = system: OVCAR-3 ovarian
RXF 393 renal = system: RXF 393 renal
IGROV1 ovarian = system: IGROV1 ovarian
HOP-62 NSCLC = system: HOP-62 NSCLC
SR leukemia = system: SR leukemia
NCI-H460 lung = system: NCI-H460 lung
DMS 114 small cell lung = system: DMS 114 small cell lung
KM12 colon = system: KM12 colon
SK-OV-3 ovarian = system: SK-OV-3 ovarian
HT29 colon = system: HT29 colon
U251 CNS = system: U251 CNS
NCI-H23 lung = system: NCI-H23 lung
UACC-257 melanoma = system: UACC-257 melanoma
KM20L2 colon = system: KM20L2 colon
LXFL 529 NSCLC = system: LXFL 529 NSCLC
UO-31 renal = system: UO-31 renal
SN12C renal = system: SN12C renal
DLD-1 colon = system: DLD-1 colon
SNB-78 CNS = system: SNB-78 CNS
SF-539 CNS = system: SF-539 CNS
HCT-15 colon = system: HCT-15 colon
786-0 renal = system: 786-0 renal
SW-620 colon = system: SW-620 colon
SK-MEL-2 melanoma = system: SK-MEL-2 melanoma
RXF-631 renal = system: RXF-631 renal
SF-268 CNS = system: SF-268 CNS
M14 melanoma = system: M14 melanoma
COLO 205 colon = system: COLO 205 colon
SNB-75 CNS = system: SNB-75 CNS
SF-295 CNS = system: SF-295 CNS
HOP-18 NSCLC = system: HOP-18 NSCLC
HL-60(TB) leukemia = system: HL-60(TB) leukemia
RPMI-8226 leukemia = system: RPMI-8226 leukemia
NCI-H522 lung = system: NCI-H522 lung
SK-MEL-28 melanoma = system: SK-MEL-28 melanoma
A498 renal = system: A498 renal
UACC-62 melanoma = system: UACC-62 melanoma
OVCAR-4 ovarian = system: OVCAR-4 ovarian
EKVX NSCLC = system: EKVX NSCLC
CAKI-1 renal = system: CAKI-1 renal
A549 NSCLC = system: A549 NSCLC
ACHN renal = system: ACHN renal
MALME-3M melanoma = system: MALME-3M melanoma
HOP-92 NSCLC = system: HOP-92 NSCLC
CCRF-CEM leukemia = system: CCRF-CEM leukemia
OVCAR-8 ovarian = system: OVCAR-8 ovarian
K-562 leukemia = system: K-562 leukemia
MOLT-4 leukemia = system: MOLT-4 leukemia
SK-MEL-5 melanoma = system: SK-MEL-5 melanoma
XF 498 CNS = system: XF 498 CNS

Measured: TGI

CCOc1ccccc1NC(=O)C1=C(C)NC(C)=C(C(=O)Nc2ccccc2OCC)C1c1ccc([N+](=O)[O-])cc1
> 100 µM: M19-MEL melanoma | DMS 273 small cell lung | HCC-2998 colon | OVCAR-5 ovarian | NCI-H226 lung | SNB-19 CNS | HCT-116 colon | OVCAR-3 ovarian | RXF 393 renal | IGROV1 ovarian | HOP-62 NSCLC | SR leukemia | NCI-H460 lung | DMS 114 small cell lung | KM12 colon | SK-OV-3 ovarian | HT29 colon | U251 CNS | NCI-H23 lung | UACC-257 melanoma | KM20L2 colon | LXFL 529 NSCLC | UO-31 renal | SN12C renal | DLD-1 colon | SNB-78 CNS | SF-539 CNS | HCT-15 colon | 786-0 renal | SW-620 colon | SK-MEL-2 melanoma | RXF-631 renal | SF-268 CNS | M14 melanoma | COLO 205 colon | SNB-75 CNS | SF-295 CNS | HOP-18 NSCLC | HL-60(TB) leukemia | RPMI-8226 leukemia | NCI-H522 lung | SK-MEL-28 melanoma | A498 renal | UACC-62 melanoma | OVCAR-4 ovarian | EKVX NSCLC | CAKI-1 renal | A549 NSCLC | ACHN renal | MALME-3M melanoma | HOP-92 NSCLC

NNC(=O)N/N=C1\CN(c2ccc(Cl)cc2Cl)C(=O)C(=O)C1c1nc2ccccc2o1 (stereo not drawn)
> 100 µM: M19-MEL melanoma | DMS 273 small cell lung | HCC-2998 colon | OVCAR-5 ovarian | NCI-H226 lung | SNB-19 CNS | HCT-116 colon | OVCAR-3 ovarian | CCRF-CEM leukemia | IGROV1 ovarian | HOP-62 NSCLC | SR leukemia | NCI-H460 lung | DMS 114 small cell lung | KM12 colon | SK-OV-3 ovarian | HT29 colon | U251 CNS | NCI-H23 lung | UACC-257 melanoma | KM20L2 colon | LXFL 529 NSCLC | UO-31 renal | OVCAR-8 ovarian | K-562 leukemia | SN12C renal | DLD-1 colon | SNB-78 CNS | SF-539 CNS | 786-0 renal | SW-620 colon | SK-MEL-2 melanoma | RXF-631 renal | SF-268 CNS | M14 melanoma | COLO 205 colon | SNB-75 CNS | RPMI-8226 leukemia | NCI-H522 lung | SK-MEL-28 melanoma | A498 renal | UACC-62 melanoma | OVCAR-4 ovarian | MOLT-4 leukemia | EKVX NSCLC | CAKI-1 renal | SK-MEL-5 melanoma | A549 NSCLC | ACHN renal | XF 498 CNS | MALME-3M melanoma | HOP-92 NSCLC
